In PMC8750417, “Intracellular Amplifiers of Reactive Oxygen Species Affecting Mitochondria as Radiosensitizers” (Cancers, 2021):

Assays:
[1] = n-octanol/water partition coefficient (logP) by RP-TLC; type: physicochemical; settings: for logP (Hydrolyzed Prodrug): n-octanol/water partition coefficient of the hydrolyzed boronic acid (_BA) form of the prodrug named; for logP (Prodrug): n-octanol/water partition coefficient of the intact prodrug (or control 2c_c), RP-TLC, MOPS pH 7.4
Experimental: Determination of n-octanol/water partition coefficients (LogP) […]
mixture of dichloromethane/CH3OH at proper concentrations. Commercially available […]
7.4) (6/4, v/v) was used. The solvent migration distance was around 4.5 cm. The plates […]
and its distance was manually measured. All measurements were done in at least triplicate and average values were used in further calculations. All experiments were performed at ambient temperature (22 ± 2 °C). […]

[2] = Solubility in RPMI 1640 medium, precipitation seen by bright field optical microscopy; settings: DMSO 1%; for Solubility: 48 h incubation in RPMI 1640, FBS 5%, first signs of precipitation
Experimental: The latter medium was selected, since we used it for the cellular assays. […] Then we monitored the formation of (not detectable in the previous experiment) aggregated species in prodrug solutions that appeared transparent (concentrations < 50 µM) by using dynamic light scattering. […]
Solubility of drugs in aqueous buffers
Observing prodrug precipitation by using bright field optical microscopy […]
glutamine (1 %), and penicillin/streptomycin (1 %) was filled into 96-well microtiter plates (100 µL for each well) and compounds in DMSO stock solution (1 µL) were added. Each well was monitored by using bright field optical microscopy both immediately after […]

[3] = Prodrug-induced generation of ROS in cell free settings (DCFH/H2O2); settings: relative acceleration of the rate of DCFH fluorescence increase with H2O2, pH 7.4; FeSO4 = 1.0
Source text: As previously reported, the NAAF-prodrugs react with ROS like H2O2, first leading to the cleavage of the B-C-bond with the formation of the phenol derivatives (product 2c-1, Figure S49, SI). The latter compounds exist in equilibrium with the corresponding phenolates. The phenolates undergo the spontaneous 1,6-elimination of para-quinone methide (QM) followed by the release of CO2 with the formation of the N-alkylaminoferrocene NAAF drugs (product 2c-2, Figure S46, SI). By using electrospray ionization mass spectrometry (ESI–MS), we confirmed for one representative prodrug 2c that it reacts with H2O2 in cell free settings according to this common mechanism (ESI-MS, Figures S46–S48, SI). The NAAF is further oxidized by H2O2 or molecular oxygen with the generation of drug NAAF^+ and highly toxic HO• or/and O2^•−. Finally, the NAAF^+ is reduced by glutathione (GSH), thereby closing the catalytic cycle, in which the NAAF acts as a catalyst. We evaluated the formation of HO• or/and O2^•− by using 2′,7′-dichlorodihydrofluorescein (DCFH) as a probe (Table 1, Figure S49, SI). This probe is oxidized to the fluorescent product 2′,7′-dichlorofluorescein (DCF) in the presence of HO• or/and O2^•−. […] The lower activity of 2c and 2d correlates with their higher lipophilicity and their correspondingly higher propensity to form aggregates in aqueous solution (Figure S45, SI).
Prodrug-induced generation of ROS in cell free settings
2',7'-Dichlorodihydrofluorescein diacetate (DCFH-DA, 4.9 mg) was dissolved in DMF (100 μL) and mixed with aqueous NaOH (0.1 M, 900 μL). The resulting mixture was incubated for 30 min at 22 °C in the dark to obtain a stock solution of 2',7'-dichlorodihydrofluorescein (DCFH, 10 mM). Next, DCFH (1 µL ) was added to the solution containing MOPS buf fer (100 mM, pH 7.4), N,N,N'N' -e thylenediaminetetraacetic acid (EDTA , 10 mM) and glutathione (GSH , 5 mM) (1 mL, final concentration of DCFH 10 μM). The reaction mixture was heated to 37 °C and H2O2 (1 µL, final concentration 10 mM) was added. The reaction was monitored by fluorescence spectroscopy: λex = 501 nm, λem = 523 nm. After around 5 min, prodrugs (1 mM in DMF, 10 μL) or positive control FeSO4 (1 mM in water, 10 μL) were added, and the fluorescence monitoring was continued until the fluorescence signal growth was stalled after approximately 100 to 300 min. A representative kinetics of ROS […]
The data are presented in Table 1 as relative acceleration of the rate of the fluorescence increase, where the rate of the fluorescence increase obtained in the presence of positive control FeSO4 was set […]
y = a time + b (a = (dF/dt) , min-1)
Figure S49. Increase of the fluorescence intensity (λex = 501 nm, λem = 523 nm) upon oxidation of DCFH by H2O2 in the presence of FeSO4. Experimental details are provided in the description above. The time point of the FeSO4 addition is indicated with a black […]
(also on this page, place not known: ° C µL) buffer N,N,N'N'-ethylenediaminetetraacetic (EDTA, (GSH, ° C FeSO 4 (λ ex λ em Fluorescence (a.u.) (dF/dt)0, min -1 Addition of)
(1 picture or pasted object on this page, not shown here)

[4] = test system: chronic lymphocytic leukemia (CLL) cells; assay: Viability of primary CLL cells (CellTiter Glo); type: cell-based, human; settings: viability of CLL vs MNC, 48 h; for 2c at 3.3 and 10 µM
Source text: Determination of viability of primary cancer (CLL) and normal (MNC) cells in the […]
Clinical samples from chronic lymphocytic leukemia (CLL) patients (N=6, CLL cells) and healthy donors (N=6; peripheral blood mononuclear cells, MNCs) were collected at the University Hospital Heidelberg, Germany. Informed consent was obtained in accordance with the Declaration of Helsinki. Sample collection and analysis was approved by the ethics committee of the University of Heidelberg (S-254/2016). Blood was separated by a Ficoll gradient (GE Healthcarey), and cells were cryopreserved. Drug sensitivity screening was performed in 384-well format (Greiner Bio One) with 10 different prodrug […]
4x10^4 cells per well. Cells were cultured in RPMI-1640 (Invitrogen) supplemented with penicillin/streptomycin (Invitrogen), L-glutamine (Invitrogen) and 10% pooled and heat inactivated AB-type human serum (Sigma-Aldrich). Cell viability was assessed by quantification of ATP (CellTiter Glo®, Promega) 48 hours after drug application.
Luminescence was measured on a Tecan Infinite F200 Microplate Reader. Viability was calculated as % of solvent (DMSO) treated control. Representative plots of cell viability

A2780 cells = assay: Cell viability, MTT assay, A2780; type: cell-based, human
Experimental: (§1) Determination of viability of cells in the presence of prodrugs and controls A2780 and BL-2 cells The medium was removed, and the cells were washed two times with DPBS, trypsinated, and resuspended in RPMI 1640 medium (A2780) supplemented with 5% FBS (for 24 h and 48 h assay) or 10% FBS (for 96 h assay) , 1% L-glutamine, and 1% penicillin/streptomycin.
(§2) A2780 cells: This suspension was spread in the wells of a 96 -well microtiter plate (25000 cells for A2780 per well per 100 μL) and left standing at 37 °C in the chamber filled with CO2 (5%) for overnight. Stock solutions of prodrugs of different concentra tions (1 μL, solvent dmso, final concentrations in wells were 2, 5, 10, 30, 50 μM) were added to the wells and incubated for specific periods of time. Four experiments were conducted for each concentration of the prodrug. Finally, 3-(4,5-dimethylthiazol-2-yl)-2,5-diphenyltetrazolium bromide (MTT, 20 μL of the solution prepared by dissolving MTT (5 mg) in DPBS buffer (1 mL)) was added to each well, incubated for 3 h, treated with sodium dodecyl sulfate (SDS) solution (90 μL, 10% solution in 0.01 M aqueous HC l), and incubated overnight. Afterward, the intensity of the absorbance at 590 nm was measured.
(§3) MTT is converted in live cells to blue dye with the absorbance maximum λ max at 590 nm.
The absorbance at 690 nm was taken as a baseline value. The baseline corrected absorbance at 590 nm (A(590 nm) − A(690 nm)) was applied to calculate the relative number of viable cells. IC50 values were determined by fitting the experimental data expressing the number of viable cells (%, Y-axis) versus drug concentration (μM, X-axis) with a line curve and the X-axis value corresponding to 50% viability was considered as IC50 value according to the line curve (Figure S50, Table S2). […]

Jurkat cells = assay: Jurkat flow cytometry (AnnexinA5/PI viability, DiIC1(5) MMP, monobromobimane GSH, cell cycle); type: cell-based, human; settings: 48 h incubation
Experimental: Jurkat cells The cells were counted in MUSE Cell Analyzer using MUSE® Count &Viability Assay Kit (Merck-Millipore, Billerica, MA, USA) and adjusted to a density of 1.0 x 10^5/ml in RPMI 1640 medium (with 10% FCS and 1% glutamine). 9.000 cells per well per 90 µL were seeded into 96 well culture plates. The 30 mM prodrug stock solutions in DMSO were diluted to 300 µM, 100 µM, 30 µM and 10 µM in cell culture medium and 10 µL of the dilutions was pipetted to the cells, receiving final test concentrations of 30 µM, 10 µM, 3 µM and 1 µM. Every concentration was tested in triplicates. Cells with corresponding amounts of DMSO served as negative controls. After 48 h cells were mixed and 25 µL of […]
the cell suspension was incubated with 200 µL of freshly prepared staining solution, consisting of AnnexinA5-Fitc (1 µL), 1,1′,3,3,3′,3′-hexamethylindodicarbocyanine iodide (DiIC1(5), 0.4 µL) (both from ThermoFisher Scientific, Waltham, MA, USA), propidium iodide (PI, 67 ng) and monobromobimane (MBB, 33 µM, both from Sigma-Aldrich, Taufkirchen, Germany) per 1 ml Ringer’s solution (Fresenius Kabi AG, Bad Homburg, Germany). Cells were incubated for 20 min at 4°C and then analyzed in Gallios cytofluorometer™ (Beckman Coulter, Fullerton, CA, USA). Fitc and propidium iodide were excited at 488 nm; Fitc fluorescence was recorded on the FL1 sensor (525/38 nm band pass, BP) and propidium iodide fluorescence was detected on FL3 sensor (620/30 nm BP), DiIC1(5) fluorescence was excited at 638 nm and detected on FL6 sensor at 675/20 nm BP, and monobromobimane fluorescence was excited at 405 nm and detected on FL9 sensor at 430/40 nm BP. To eliminate any fluorescence bleed-through, electronic compensation was used. Data were analyzed employing Kaluza™ software Version 1.2 (Beckman Coulter, Fullerton, CA, USA) and processed in Microsoft Excel (Figures S51-S54, Table S5). Cells negative for Annexin A5-Fitc and propidium iodide were considered viable. IC50 values were determined by fitting the % values of Ax-PI- cells versus drug concentration with a sigmoidal curve using GraphPad Prism software. Reduced glutathione (an intracellular thiol) can be detected by monobromobimane, a dye that becomes fluorescent after non-enzymatic binding to thiols.[S3] For analysis of amount of mitochondrial membrane potential or reduced glutathione the mean fluorescence index (MFI) was determined from viable cells by gating on Ax -PI- events.
Table S5. Effects of the prodrugs on the viability of Jurkat cell lines (IC50 values) after 48

BL-2 cells = assay: Cell viability, MTT assay, BL-2; type: cell-based, human; settings: BL-2, 48 h incubation
Experimental: as §1, §2, §3
The absorbance at 690 nm was taken as a baseline value. The baseline corrected absorbance at 590 nm (A(590 nm) − A(690 nm)) was applied to calculate the relative number of viable cells. IC50 values were determined by fitting the experimental data expressing the number of viable cells (%, Y-axis) versus drug concentration (μM, X-axis) with a line curve and the X-axis value corresponding to 50% viability was considered as IC50 value according to the line curve (Figure S50, Table S2).
BL-2 cells: The cells were centrifuged, the medium was removed, and the cells were washed two times with DPBS and re-suspended in RPMI 1640 medium containing 5% (48 h incubation) or 10% FBS (96 h incubation), 1% L-glutamine, and 1% penicillin/ streptomycin. This suspension was spread in the wells of a 96-well microtiter plate (50000 cells per well per 100 μL). Other steps were identical to those was described in determination of viability of adherent cells (given above) (Table S3).

CCOC(=O)CCCCCn1cc(CN(C(=O)OCc2ccc(B(O)O)cc2)[c-]2cccc2)nn1.[Fe+2].c1cc[cH-]c1 [1_BA, reference compound]
logP (Hydrolyzed Prodrug) [1]: 2.83 ± 0.07

CC1(C)OB(c2ccc(COC(=O)N(Cc3cn(Cc4ccccc4)nn3)[c-]3cccc3)cc2)OC1(C)C.[Fe+2].c1cc[cH-]c1 [2a]
Solubility [2]: 100 µM | first signs of precipitation ([2]; immediately after dilution in RPMI 1640, FBS 5%): 50 µM | ROS Release Efficacy [3]: 0.74 ± 0.19 | cancer cell specificity, primary CLL cells vs MNCs [4]: some specificity towards primary CLL cells | logP (Hydrolyzed Prodrug) [1]: 2.92 ± 0.14 | logP (Prodrug) [1]: 5.27 ± 0.10 | IC50 (A2780 cells; A2780, 24 h incubation): 23.7 ± 0.6 µM | IC50 (A2780 cells; A2780, 48 h incubation): 16.2 ± 1.8 µM | IC50 (A2780 cells; A2780, 96 h incubation): 10.5 ± 0.7 µM

O=C(OCc1ccc(B(O)O)cc1)N(Cc1cn(Cc2ccc(Cn3cc(Cc4ccccc4)nn3)cc2)nn1)[c-]1cccc1.[Fe+2].c1cc[cH-]c1 [2c_BA]
logP (Hydrolyzed Prodrug) [1]: 3.23 ± 0.11

CN(C)C(=O)c1ccc(COC(=O)N(Cc2cn(Cc3ccc(Cn4cc(Cc5ccccc5)nn4)cc3)nn2)[c-]2cccc2)cc1.[Fe+2].c1cc[cH-]c1 [2c_c]
Solubility [2]: 55 ± 5 µM | ROS Release Efficacy [3]: 0.050 ± 0.003 | logP (Prodrug) [1]: 3.90 ± 0.08 | IC50 (A2780 cells; A2780, 96 h incubation): 6.1 ± 1.5 µM

C1=CCC=C1.CC1(C)OB(c2ccc(COC(=O)N(Cc3cn(CCC[P+](c4ccccc4)(c4ccccc4)c4ccccc4)nn3)C3C=CC=C3)cc2)OC1(C)C.[Fe+2] [5c, reference compound]
IC50 (Jurkat cells): 20 µM | IC50 (BL-2 cells): 5 µM | IC50 (A2780 cells; A2780, 24 h incubation): 10 ± 3 µM | IC50 (A2780 cells; A2780, 48 h incubation): 5 ± 2 µM | IC50 (A2780 cells; A2780, 96 h incubation): 5 ± 2 µM

[Fe+2].c1cc[cH-]c1.c1ccc(Cn2cc(CN[c-]3cccc3)nn2)cc1 [compound 3]
IC50 (A2780 cells; A2780, 48 h incubation): > 50 µM

[Fe+2].c1cc[cH-]c1.c1ccc(CN[c-]2cccc2)cc1 [compound 4]
IC50 (A2780 cells; A2780, 48 h incubation): > 50 µM
